Experiments:
[1] = Genotoxicity classification of Nilotinib impurity A; settings: not disclosed
Text: Regulatory agencies, such as the FDA and the European Medicines Agency (EMA), have specific guidelines and regulations for assessing and managing the risks associated with genotoxic compounds, particularly in the context of pharmaceuticals and chemical safety.

[2] = literature (Li, Singamsetti, Puppala); cited from earlier work
[3] = cited from earlier work

Row | Structure (SMILES) | genotoxicity, internal evaluations [1] | genotoxicity classification [2] | pKa [3]
1 | Cc1cn(-c2cc(N)cc(C(F)(F)F)c2)cn1 [Nilotinib impurity A, 3-(4-methylimidazol-1-yl)-5-(trifluoromethyl) aniline] | may not be genotoxic | potentially genotoxic or mutagenic | –
2 | O=C1O[C@H]([C@@H](O)CO)C(O)=C1O [Ascorbic acid, ascorbic acid] | – | – | about 4.2

Source: patent publication US12419892B2, “Pharmaceutical compositions comprising nilotinib” (XSPRAY PHARMA AB, priority 2023, dated 2025)
